Test results published in patent US8710099B2, “Treatment of cancer using the sodium salt of a benzoic acid derivative” (New York University, priority 2009, dated 2014).

Key:
Human M21 melanoma cells [1] = experiment: M21 melanoma cell proliferation, MTT assay; assay type: cell-based
Method: (§1) Human M21 melanoma cells were washed and re-suspended in proliferation buffer containing 1.0% serum in the presence or absence of 100 ng/mL of C-45-Na, or C-45-HCl. DMSO control samples lacking C-45-Na or C-45-HCl were also prepared. Treated cells (1,500/well) were added to individual wells of a cell culture microtiter plate and allowed to grow over a time course of 3 days. Proliferation was monitored using a commercially available MTT assay (Millipore). Data points represent the mean±standard deviations from triplicate wells.
as §1, with “C-45-HCl.” for “C-45-HCl. DMSO control samples lacking C-45-Na or C-45-HCl were also prepared.”
as §1, with “0.5%” for “1.0%”, “presence” for “presence or absence”, “50 μg/mL” for “100 ng/mL”, “C-45-Na, C-45-K,” for “C-45-Na,”, “C-45-Na, C-45-K, and” for “C-45-Na or”
(§2) In Example 6, the differential effects of C-45-Na on normal human melanocytes, normal human keratinocytes and human melanoma cells were examined Normal human melanocytes, keratinocytes and M21 melanoma cells were allowed to proliferate in the presence or absence of C-45-Na (50 μg/mL) for 24 hours. Proliferation was monitored using a commercially available MTT assay (Millipore).

[2] = system: C8161 human melanoma cells; experiment: C8161 melanoma cell proliferation, MTT assay; assay type: cell-based; conditions: 100 μg/mL, 0.5% serum, 3 days; FIG. 13A
Method: as §1, with “C8161 and A375 human melanoma” for “Human M21 melanoma”, “containing 0.5%” for “containing 1.0%”, “presence” for “presence or absence”, “100 μg/mL” for “100 ng/mL”, “of C-45-Na” for “of C-45-Na,”, “C-45-Na and” for “C-45-Na or”

[3] = system: A375 human melanoma cells; experiment: A375 melanoma cell proliferation, MTT assay; assay type: cell-based; conditions: 100 μg/mL, 0.5% serum, 3 days; FIG. 13B
Method: as §1, with “C8161 and A375 human melanoma” for “Human M21 melanoma”, “containing 0.5%” for “containing 1.0%”, “presence” for “presence or absence”, “100 μg/mL” for “100 ng/mL”, “of C-45-Na” for “of C-45-Na,”, “C-45-Na and” for “C-45-Na or”

[4] = system: MDA-MB 231 human breast carcinoma cells; experiment: MDA-MB 231 breast carcinoma proliferation, MTT assay; assay type: cell-based; conditions: 100 μg/mL, 0.5% serum, 3 days; FIG. 14A
Method: as §1, with “MDA-MB 231 human breast carcinoma cells” for “Human M21 melanoma cells”, “containing 0.5%” for “containing 1.0%”, “presence” for “presence or absence”, “100 μg/mL” for “100 ng/mL”, “of C-45-Na” for “of C-45-Na,”, “C-45-Na and” for “C-45-Na or”

[5] = system: Panc-1 human pancreatic carcinoma cells; experiment: Panc-1 pancreatic carcinoma proliferation, MTT assay; assay type: cell-based; conditions: 4.7, 9.3, 17.3, 37.5, and 75 μg/mL, 3 days; FIG. 14B
Method: Panc-1 human pancreatic carcinoma cells were allowed to proliferate over a 3-day time course in the presence or absence of a series of concentrations of C-45-Na (4.7, 9.3, 17.3, 37.5, and 75 μg/mL) of or C-45-HCl. DMSO control samples lacking C-45-Na and were also prepared. Treated cells (1,500/well) were added to individual wells of a cell culture microtiter plate and allowed to grow over a time course of 3 days. Proliferation was monitored using a commercially available MTT assay (Millipore). Data points represent the mean±standard deviations from triplicate wells.

Human M21 melanoma cells [6] = experiment: Melanoma cell morphology; assay type: cell-based; conditions: 100 μg/mL, 24 hours; FIG. 11A
Method: (§3) Human M21 melanoma cells or C8161 melanoma cells were incubated in the presence of 100 μg/mL of C-45-Na or C-45-HCl for 24 hours. DMSO control samples lacking C-45-Na and C-45-HCl were also prepared.

C8161 melanoma cells = experiment: Melanoma cell morphology; assay type: cell-based, human; conditions: 100 μg/mL, 24 hours; FIG. 11B
Method: as §3

Normal human melanocytes = experiment: Normal melanocyte proliferation, MTT assay; assay type: cell-based; conditions: 50 μg/mL, 24 hours; FIG. 12B
Method: as §2

[7] = system: normal human keratinocytes; experiment: Normal keratinocyte proliferation, MTT assay; assay type: cell-based; conditions: 50 μg/mL, 24 hours; FIG. 12C
Method: as §2

M21 melanoma cells = experiment: M21 melanoma tumor growth in nude mice; assay type: in vivo
Method: Briefly, M21 melanoma cells (4.0×10^6) were injected subcutaneously in nude mice. Following establishment of palpable tumors (4 days), mice were either left untreated or treated daily by i.p injection with DMSO (50 μl/day), or with C-45-Na (50 μl/day) or C-45-HCl (50 μl/day) at a concentration range of 1-100 ug/day. Tumor size was monitored by caliper measurements and tumor volumes were estimated using the formula (L^2×W/2) where “L” represents length, and “W” represents width.
The effects of C45-Na on M21 melanoma tumor growth in vivo were studied. Briefly, M21 melanoma cells (4.0×10^6) were injected subcutaneously in nude mice. Following establishment of palpable tumors (4 days), mice were either left untreated or treated daily by i.p injection with DMSO (50 μl/day), or with C-45-Na concentrations of 0.1, 0.5, or 1.0 μg/day. Tumor size was monitored by caliper measurements and tumor volumes were estimated using the formula (L^2×W/2) where “L” represents length, and “W” represents width.
In experiment 11, an activity comparison between C-45-Na (1.0 μg) and C45-HCl (1.0 μg) on the in vivo growth of M21 tumors was examined following daily treatment after 21 days. Tumor size was monitored by caliper measurements and tumor volumes were estimated using the formula (L^2×W/2) where “L” represents length, and “W” represents width.

## C=CCNc1ccc(C(=O)[O-])cc1.[Na+] [C-45-Na, Sodium 4-allylaminobenzoate]
Human M21 melanoma cells [1]; 50 μg/mL, 24 hours, M21 vs melanocytes and keratinocytes
  selectivity, tumor cells versus normal human cells: selective for tumor cell proliferation rather than normal human cells
Human M21 melanoma cells [1]; Experiment 1: 100 ng/mL, 1.0% serum, 3 days, FIG. 6
  M21 tumor cell proliferation: very potent anti-proliferative activity
Human M21 melanoma cells [1]; Experiment 2: 100 ng/mL, 1.0% serum, 3 days, FIG. 7
  M21 tumor cell proliferation: very potent anti-proliferative activity
Human M21 melanoma cells [1]; Experiment 3: 50 μg/mL, 0.5% serum, 3 days, FIG. 15
  M21 tumor cell proliferation: very potent anti-proliferative activity
Human M21 melanoma cells [1]; Experiment 8: 50 μg/mL, 24 hours, FIG. 12A
  M21 tumor cell proliferation: very potent anti-proliferative activity
[2]
  C8161 tumor cell proliferation: very potent anti-proliferative activity
[3]
  A375 tumor cell proliferation: very potent anti-proliferative activity
[4]
  MDA-MB 231 cell proliferation: very potent anti-proliferative activity
[5]
  panc-1 cell proliferation: very potent anti-proliferative activity
Human M21 melanoma cells [6]
  cell morphology, M21: significant cell rounding
C8161 melanoma cells
  cell morphology, C8161: significant cell rounding
Normal human melanocytes
  effect on proliferation of normal human melanocytes: very little effect
[7]
  effect on proliferation of normal human keratinocytes: very little effect
M21 melanoma cells; Experiment 9: daily i.p., 1.0 μg/day
  inhibition of M21 melanoma tumor growth: Significant inhibition
M21 melanoma cells; Experiment 10: daily i.p., 0.1, 0.5, or 1.0 μg/day, days 8, 14, and 21 (P<0.05), FIG. 16
  inhibition of tumor growth: significant inhibition of tumor growth
M21 melanoma cells; Experiment 11: 1.0 μg daily, day 21 (P<0.05), FIG. 17
  inhibition of tumor growth: significant inhibition of tumor growth
